Biological target: T1, OTUD3 (Homo sapiens, UniProt Q5T2D3)
T1 sequence (Q5T2D3 1-398): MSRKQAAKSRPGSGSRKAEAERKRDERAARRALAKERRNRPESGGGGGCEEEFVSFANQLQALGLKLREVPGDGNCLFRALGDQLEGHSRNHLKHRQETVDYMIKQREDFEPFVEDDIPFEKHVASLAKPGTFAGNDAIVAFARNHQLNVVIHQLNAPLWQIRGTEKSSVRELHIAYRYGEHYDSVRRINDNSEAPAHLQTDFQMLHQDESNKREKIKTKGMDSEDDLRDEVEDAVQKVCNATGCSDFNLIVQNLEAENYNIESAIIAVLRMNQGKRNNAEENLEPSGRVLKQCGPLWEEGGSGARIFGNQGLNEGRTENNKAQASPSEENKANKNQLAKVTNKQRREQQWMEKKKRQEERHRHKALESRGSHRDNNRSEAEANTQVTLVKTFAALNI
Assay: microscale thermophoresis (MST) with labeled OTUD3; supported by in vitro K48 di-ubiquitin cleavage assay with purified OTUD3 OTU (aa […]) at […] Rolapitant
Assay type: binding

C[C@@H](OC[C@@]1(c2ccccc2)CC[C@]2(CCC(=O)N2)CN1)c1cc(C(F)(F)F)cc(C(F)(F)F)c1 [Rolapitant]
microscale thermophoresis (MST) with labeled OTUD3; supported by in vitro K48 di: MST (microscale thermophoresis) assays shown that OTUD3 could directly bind to Rolapitant in vitro
